Laboratory results published in publication PMC8158245, “Novel chalcone/aryl carboximidamide hybrids as potent anti-inflammatory via inhibition of prostaglandin E2 and inducible NO synthase activities: design, synthesis, molecular docking studies and ADMET prediction” (Journal of Enzyme Inhibition and Medicinal Chemistry, 2021).
Several values for one entry are separate records, joined by “and”; a condition that tells them apart may be missing. Identical values can stand only once.

Assays:
[1] = system: carrageenan-induced paw edoema; experiment: Carrageenan-induced rat paw edoema; format: in vivo, Wistar albino rats; conditions: rat, 50 mg/kg oral; for % of edoema inhibition (% mean ± SEM), 1 h: 1 h after carrageenan; for % of edoema inhibition (% mean ± SEM), 2 h: 2 h after carrageenan; for % of edoema inhibition (% mean ± SEM), 3 h: 3 h after carrageenan; for % of edoema inhibition (% mean ± SEM), 4 h: 4 h after carrageenan
Experimental: The anti-inflammatory activity of the inspiring active compounds in vitro (4c, 4d, 6a, 6c, 6d and 6e) were further estimated in vivo using the carrageenan-induced paw edoema test. […] The paw thickness was assessed using Vernier calliper after carrageenan injection for 1,2, 3 and 4 h. Wistar albino rats (males weighing 120–140 g, six rats per group) were grouped as follows: Group 1 (Control) rats were received the vehicle. […] The percentage inhibition of edoema thickness was calculated at each time interval in comparison to the control group.

[2] = system: LPS-induced NO production in RAW 264.7 cells; experiment: Griess assay for NO release from LPS-stimulated RAW 264.7 cells; format: cell-based; conditions: Mus musculus, RAW264.7; for inhibition at 5 µM: compounds at 5 µM, 2 h before LPS, RAW 264.7 cells, read-out: NO Inhibition rates (%) ± SD; for IC50: LPS-induced RAW 264.7 cells
Experimental: Equal volumes of Griess reagent and the supernatant, obtained from treated RAW264.7 cells with the compounds 2 h before LPS induction, were mixed for 10 min at room temperature in the dark. The absorbance was measured at 540 nm using ELISA plate reader and the nitrite concentration was calculated from sodium nitrite standard curve. The percentage inhibition (%) is calculated as absorbance at 540 nm of (LPS-compounds)/absorbance at 540 nm of (LPS-control) ×100[47]^,[48].

[3] = target: T1, bovine COX-1 (Ovis aries, UniProt P05979); experiment: In vitro COX-1 inhibition assay (Cayman kit); format: biochemical
T1 construct: purchased Cayman Chemical 560101
T1 sequence (P05979 25-600): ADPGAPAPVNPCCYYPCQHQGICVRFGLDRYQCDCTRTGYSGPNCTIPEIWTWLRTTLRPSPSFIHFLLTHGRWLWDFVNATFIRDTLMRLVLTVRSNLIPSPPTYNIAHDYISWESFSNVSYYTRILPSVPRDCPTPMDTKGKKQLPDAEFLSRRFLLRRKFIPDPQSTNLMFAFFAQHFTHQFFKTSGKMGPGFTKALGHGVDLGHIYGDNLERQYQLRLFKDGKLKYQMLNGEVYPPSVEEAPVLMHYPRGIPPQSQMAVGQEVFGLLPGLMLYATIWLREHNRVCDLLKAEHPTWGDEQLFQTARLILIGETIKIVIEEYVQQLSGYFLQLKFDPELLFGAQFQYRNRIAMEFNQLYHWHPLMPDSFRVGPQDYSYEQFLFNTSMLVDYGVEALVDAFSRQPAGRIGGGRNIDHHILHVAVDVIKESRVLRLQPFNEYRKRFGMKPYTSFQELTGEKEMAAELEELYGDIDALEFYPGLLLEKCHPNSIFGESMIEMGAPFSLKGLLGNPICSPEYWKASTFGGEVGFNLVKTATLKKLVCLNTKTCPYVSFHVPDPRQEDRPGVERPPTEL

[4] = system: PGE2 production in RAW 264.7 cells; experiment: PGE2 concentration by ELISA in LPS-treated RAW 264.7 cells; format: cell-based; conditions: Mus musculus, RAW264.7; LPS-induced RAW 264.7 cells
Experimental: After seeding and incubation of RAW 264.7 cells for 24 h, then the cells were treated with the compounds (4c, 4d, 6a, 6c, 6d and 6e) at different concentrations and with LPS (1 µg/ml) for another 24 h. The concentration of prostaglandin E2 (PGE2) was measured in the culture media using ELISA kit (R&D Systems, Minneapolis, MN)[50].

[5] = target: T2, iNOS (Mus musculus, UniProt P29477); experiment: iNOS enzymatic activity in LPS-induced RAW 264.7 cells; format: cell-based
T2 construct: endogenous in cells; host or cells: RAW 264.7 cells induced with LPS
T2 sequence (P29477 1-1144): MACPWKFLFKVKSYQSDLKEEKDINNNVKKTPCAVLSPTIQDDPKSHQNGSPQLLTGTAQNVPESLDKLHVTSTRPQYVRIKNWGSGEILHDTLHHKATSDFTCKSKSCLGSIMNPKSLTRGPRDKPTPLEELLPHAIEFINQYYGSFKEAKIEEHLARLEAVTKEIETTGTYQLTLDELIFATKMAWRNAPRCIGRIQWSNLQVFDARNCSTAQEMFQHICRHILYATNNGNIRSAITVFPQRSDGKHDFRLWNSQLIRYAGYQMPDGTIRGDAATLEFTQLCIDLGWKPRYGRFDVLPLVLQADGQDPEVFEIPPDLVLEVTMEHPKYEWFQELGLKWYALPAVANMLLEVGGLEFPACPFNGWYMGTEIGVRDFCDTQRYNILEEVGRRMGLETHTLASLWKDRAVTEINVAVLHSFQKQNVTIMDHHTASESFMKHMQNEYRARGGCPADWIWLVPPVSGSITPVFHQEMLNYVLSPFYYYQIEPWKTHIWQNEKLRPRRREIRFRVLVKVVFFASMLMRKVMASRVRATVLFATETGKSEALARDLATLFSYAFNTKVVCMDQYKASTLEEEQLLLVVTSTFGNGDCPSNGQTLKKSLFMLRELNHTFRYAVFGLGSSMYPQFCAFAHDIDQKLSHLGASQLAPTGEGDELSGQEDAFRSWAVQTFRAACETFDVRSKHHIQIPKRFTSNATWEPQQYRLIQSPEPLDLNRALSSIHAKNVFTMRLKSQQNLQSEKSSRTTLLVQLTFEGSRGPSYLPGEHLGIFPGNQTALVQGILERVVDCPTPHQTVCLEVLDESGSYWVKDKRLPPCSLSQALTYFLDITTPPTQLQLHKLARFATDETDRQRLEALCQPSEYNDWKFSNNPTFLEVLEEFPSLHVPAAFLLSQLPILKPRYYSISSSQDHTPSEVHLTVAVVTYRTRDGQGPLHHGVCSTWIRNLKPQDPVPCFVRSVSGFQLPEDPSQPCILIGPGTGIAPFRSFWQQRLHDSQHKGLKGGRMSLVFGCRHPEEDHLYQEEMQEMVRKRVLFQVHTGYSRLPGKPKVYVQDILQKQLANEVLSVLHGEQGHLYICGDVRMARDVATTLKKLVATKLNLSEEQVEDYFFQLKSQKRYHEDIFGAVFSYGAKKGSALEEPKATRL
Experimental: Then, the NOS assay reaction solution (100 µl/well) was added and incubated for an extra 2 h at 37 °C. The fluorescence with excitation wavelength at 485 nm and emission wavelength at 528 nm was measured using a fluorescent microplate reader.

[6] = MTT cytotoxicity assay on RAW 264.7 cells; format: cell-based; conditions: mouse; for IC50 at 20 h: with LPS; for IC50: without LPS
Experimental: MTT assay was used to assess the cell viability of RAW 264.7 cells cultured in RPMI-1640 complete media. […] Afterwards, 5 µl of MTT solution were added and incubated for further 4 h. Finally, 150 ul of dimethyl sulfoxide (DMSO) were added and the optical density was assessed at 570 nm using an ELISA plate reader.

[7] = system: COX-2; experiment: In vitro COX-2 inhibition assay (Cayman kit); format: biochemical, bovine; conditions: selectivity index from COX 1 and COX 2 IC50
[8] = listed as indomethacin, 50 mg/kg

| SMILES | % of edoema inhibition (% mean ± SEM), 1 h [1] | % of edoema inhibition (% mean ± SEM), 2 h [1] | % of edoema inhibition (% mean ± SEM), 3 h ([1]; 50 mg/kg) | % of edoema inhibition (% mean ± SEM), 4 h ([1]; 50 mg/kg) | inhibition at 5 µM [2] | melting point | IC50 [4] | IC50 [2] | IC50 [5] | IC50 at 20 h [6] | IC50 [6] | also measured |
| --- | --- | --- | --- | --- | --- | --- | --- | --- | --- | --- | --- | --- |
| Cc1ccc(-c2cc(C(F)(F)F)nn2-c2ccc(S(N)(=O)=O)cc2)cc1 [Celecoxib, reference compound] | 10.61 ± 2.59% | 25.43 ± 3.29% | 46.42 ± 2.87% | 12.32 ± 2.42% | – | – | – | – | – | – | – | % of edoema inhibition (% mean ± SEM), 3 h [1]: 46.42%; % of edoema inhibition (% mean ± SEM), 4 h ([1]; listed as celecoxib, 50 mg/kg): 12.32% |
| COc1ccc(/C=C/C(=O)c2ccc(OCC(=O)O/N=C(\N)c3ccccc3)cc2)cc1 [Compound 4a, N’-(2-{4-[(2E)-3-(4-Methoxyphenyl)prop-2-enoyl]phenoxy}acetoxy) benzenecarboximidamide] | – | – | – | – | 41.9 ± 1.4% | 164 to 166 °C | – | – | – | – | – | – |
| COc1ccc(/C=C/C(=O)c2ccc(OCC(=O)ON=C(N)c3ccc(Cl)cc3)cc2)cc1 [Compound 4b, N’-(2-{4-[(2E)-3-(4-Methoxyphenyl)prop-2-enoyl]phenoxy}acetoxy)-4-chlorobenzenecarboximidamide] | – | – | – | – | 47.6 ± 3.6% | 180 to 182 °C | – | – | – | – | – | – |
| COc1ccc(/C=C/C(=O)c2ccc(OCC(=O)ON=C(N)c3ccc(OC)cc3)cc2)cc1 [Compound 4c, N’-(2-{4-[(2E)-3-(4-Methoxyphenyl)prop-2-enoyl]phenoxy}acetoxy)-4-methoxybenzenecarboximidamide] | 11.21 ± 2.41% | 33.62 ± 2.69% | 57.71% and 57.71 ± 2.21% | 69.86% and 69.86 ± 3.51% | 62.3 ± 1.9% | – | 0.0323 µM | 8.61 µM | 3.62 µM | > 80 µM | > 80 µM | IC50 [3]: 19.9 ± 1.03 µM; SI [7]: 6.06 |
| COc1ccc(/C=C/C(=O)c2ccc(OCC(=O)ON=C(N)c3ccc(OC)c(OC)c3)cc2)cc1 [Compound 4d, N’-(2-{4-[(2E)-3-(4-Methoxyphenyl)prop-2-enoyl]phenoxy}acetoxy)-3,4-dimethoxybenzenecarboximidamide] | 11.65 ± 2.26% | 34.78 ± 3.34% | 69.5% and 69.50 ± 1.49% | – | 73.5 ± 2.1% | – | 0.0247 µM | 5.73 µM | 2.22 µM | > 80 µM | > 80 µM | IC50 [3]: 5.82 ± 0.3 µM; % of edoema inhibition (% mean ± SEM), 4 h [1]: 54.21 ± 3.47%; SI [7]: 0.25 |
| COc1ccc(/C=C/C(=O)c2ccc(OCC(=O)ON=C(N)c3ccc([N+](=O)[O-])cc3)cc2)cc1 [Compound 4e, N’-(2-{4-[(2E)-3-(4-Methoxyphenyl)prop-2-enoyl]phenoxy}acetoxy)-4-nitrobenzenecarboximidamide] | – | – | – | – | 44.1 ± 2.8% | 184 to 186 °C | – | – | – | – | – | % of edoema inhibition (% mean ± SEM), 3 h [1]: 39.26% |
| COc1ccc(/C=C/C(=O)c2ccc(OCC(=O)O/N=C(\N)c3ccc4ccccc4c3)cc2)cc1 [Compound 4f, N’-(2-{4-[(2E)-3-(4-Methoxyphenyl)prop-2-enoyl]phenoxy}acetoxy) naphthalene-2-carboximidamide] | – | – | – | – | 31.2 ± 2.2% | 176 to 178 °C | – | – | – | – | – | – |
| COc1ccc(C(=O)/C=C/c2ccc(OCC(=O)ON=C(N)c3ccc(Cl)cc3)cc2)cc1 [Compound 6b, N’-(2-{4-[(1E)-3-(4-Methoxyphenyl)-3-oxoprop-1-en-1-yl]phenoxy}acetoxy) -4-chlorobenzenecarboximidamide] | – | – | – | – | 49.6 ± 2.3% | 192 to 193 °C | – | – | – | – | – | – |
| COc1ccc(C(=O)/C=C/c2ccc(OCC(=O)ON=C(N)c3ccc(OC)cc3)cc2)cc1 [Compound 6c, N’-(2-{4-[(1E)-3-(4-Methoxyphenyl)-3-oxoprop-1-en-1-yl]phenoxy}acetoxy)-4-methoxybenzenecarboximidamide] | 11.42 ± 1.75% | 28.44 ± 2.75% | 54.36% and 54.36 ± 2.34% | 62.21% and 62.21 ± 3.46% | 67.1 ± 2.4% | – | 0.0275 µM | 5.92 µM | 2.45 µM | > 80 µM | > 80 µM | IC50 [3]: 64.4 ± 3.35 µM; SI [7]: 7.79 |
| COc1ccc(C(=O)/C=C/c2ccc(OCC(=O)O/N=C(\N)c3ccc4ccccc4c3)cc2)cc1 [Compound 6f] | – | – | – | – | 29.4 ± 2.5% | 178 to 179 °C | – | – | – | – | – | – |
| COc1ccc2c(c1)c(CC(=O)O)c(C)n2C(=O)c1ccc(Cl)cc1 [Indomethacin, reference compound] | 28.03 ± 1.35% | 45.27 ± 2.48% | 63.71 ± 3.48% | 56.27 ± 2.14% | 25.5% | – | 0.0766 µM | 45.7 µM | 24.6 µM | > 80 µM | > 80 µM | % of edoema inhibition (% mean ± SEM), 3 h [1, 8]: 63.71%; % of edoema inhibition (% mean ± SEM), 4 h [1, 8]: 56.27% |
